From US7265152B2 (ViroPharma Incorporated, priority 2002, dated 2007)
Like-named read-outs stand apart in the source and are kept apart here.

How the values were obtained:
[1] = biological target: T1, HCV NS5B (Hepatitis C virus genotype 1b, UniProt Q9WMX2); assay: Inhibition of viral RNA-dependent RNA polymerase (RdRp), in vitro biochemical assay; design: species or system HCV genotype 1b virus (BB7); conditions: read-out: HCV pol-BB7 IC50
T1 construct: fusion protein, of which the carboxyl terminal 21 amino acids were removed to enhance its solubility; His tag (GSHHHHHH); made in house; host or cells: E. coli
Summary of the method: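 IC50 values are the concentrations that halve in vitro RNA synthesis by HCV NS5B polymerase. The enzyme was a C-terminally truncated (Δ21), His-tagged genotype 1b (BB7 consensus) protein purified from E. coli.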

[2] = test system: HCV replicon (BB7 sequence) in Huh-7-Clone A cells; assay: HCV replicon assay: ELISA of NS5A protein in replicon-containing cells (Inhibition of Viral RNA Replication); format: cell-based; conditions: Hepatitis C virus, read-out: Replicon
Summary of the method: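 EC50 taken from an 8-point serially diluted dose curve, with NS5A level as read-out: fixed cells probed with primary monoclonal and HRP-conjugated secondary, TMB developed 30 min, OD 650 nm. Compound exposure 72 h in Huh-7-Clone A replicon cells (BB7 sequence).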

[3] = HCV replicon assay, ranges of EC50
[4] = purified His-tagged NS5B (BB7), carboxyl terminal 21 amino acids removed
[5] = Huh-7-Clone A, NS5A ELISA, 72-hour incubation, ranges of EC50
[6] = HCV NS5B RdRp, BB7, class symbols A-D
[7] = HCV NS5B polymerase, BB7 (genotype 1b), values given as range classes A-D
[8] = HCV replicon assay, ranges of 50% effective concentration (EC50)
[9] = HCV NS5B RdRp, BB7, reported as range class
[10] = HCV NS5B RdRp, BB7, activity class
[11] = ranges of EC50 in HCV replicon assay

`CNC(=O)c1c(-c2ccc(F)cc2)oc2cc(N(COC)S(C)(=O)=O)c(OCc3ccc(C#N)cc3)cc12` [Example 446, 5-(4-Cyano-benzyloxy)-2-(4-fluoro-phenyl)-6-(methanesulfonyl-methoxymethyl-amino)-benzofuran-3-carboxylic acid methylamide] was tested, and the IC50 ([1]; HCV NS5B RdRp, BB7 (genotype 1b), reported as class symbols) was ≤ 500 nM and the EC50 [2, 3] was < 1000 nM.

With `CNC(=O)c1c(-c2ccc(C)c(F)c2)oc2ccc(OC)cc12` [Example 69, 2-(3-Fluoro-4-methyl-phenyl)-5-methoxy-benzofuran-3-carboxylic acid methylamide] the IC50 [1, 4] was ≤ 500 nM and the EC50 [2, 5] was < 10000 nM.

In the case of `CNC(=O)c1c(-c2ccc(F)cc2)oc2cc(N(Cc3c(C)noc3C)S(C)(=O)=O)c(OC)cc12` [Example 290, 6-[(3,5-Dimethyl-isoxazol-4-ylmethyl)-methanesulfonyl-amino]-2-(4-fluoro-phenyl)-5-methoxy-benzofuran-3-carboxylic acid methylamide], the IC50 [1, 6] is reported as ≤ 500 nM and the EC50 [2, 3] is reported as < 10000 nM.

For `CNC(=O)c1c(-c2ccc(F)cc2)oc2cc(NS(C)(=O)=O)c(C3CC3)cc12` [Example 418, 5-Cyclopropyl-2-(4-fluoro-phenyl)-6-methanesulfonylamino-benzofuran-3-carboxylic acid methylamide], the IC50 [1, 7] was ≤ 500 nM and the EC50 [2, 8] was < 1000 nM.

`CNC(=O)c1c(-c2ccc(F)cc2)oc2cc(N3CCOCC3)c(OCCCl)cc12` [Example 180, 5-(2-Chloro-ethoxy)-2-(4-fluoro-phenyl)-6-morpholin-4-yl-benzofuran-3-carboxylic acid methylamide] was tested, and the IC50 [1, 9] was ≤ 500 nM and the EC50 ([2]; HCV replicon, range of EC50) was > 30000 nM.

In the case of `CNC(=O)c1c(-c2ccc(F)c(F)c2)oc2ccc(OC)cc12` [Example 3, 2-(3,4-Difluoro-phenyl)-5-methoxy-benzofuran-3-carboxylic acid methylamide], the IC50 [1, 4] is reported as ≤ 500 nM and the EC50 [2, 5] is reported as < 10000 nM.

`CCCOc1cc2c(C(=O)NC)c(-c3ccc(F)cc3)oc2cc1N(CCC)S(C)(=O)=O` [Example 338, 2-(4-Fluoro-phenyl)-6-(methanesulfonyl-propyl-amino)-5-propoxy-benzofuran-3-carboxylic acid methylamide] was tested, and the IC50 [1, 10] was ≤ 500 nM and the EC50 [2, 3] was < 1000 nM.

In the case of `CNC(=O)c1c(-c2ccc(F)cc2)oc2cc(NC(C)=O)c(OC(C)C)cc12` [Example 98, 6-Acetylamino-2-(4-fluoro-phenyl)-5-isopropoxy-benzofuran-3-carboxylic acid methylamide], the IC50 ([1]; HCV NS5B RdRp, BB7 genotype 1b) is reported as ≤ 500 nM and the EC50 [2, 11] is reported as < 10000 nM.

In the case of `CNC(=O)c1c(-c2ccc(F)cc2)oc2cc(OC)c(O)cc12` [Example 165, 2-(4-Fluoro-phenyl)-5-hydroxy-6-methoxy-benzofuran-3-carboxylic acid methylamide], the IC50 ([1]; HCV NS5B RdRp, BB7 genotype 1b) is reported as 5000 to 30000 nM and the EC50 [2, 11] is reported as > 30000 nM.

`CCc1ccc(-c2oc3ccc(F)cc3c2C(=O)NC)cc1` [Example 83, 2-(4-Ethyl-phenyl)-5-fluoro-benzofuran-3-carboxylic acid methylamide] was tested, and the IC50 [1, 4] was ≤ 500 nM and the EC50 [2, 5] was < 10000 nM.

In the case of `CNC(=O)c1c(-c2ccc(F)cc2)oc2cc(N(CC(F)(F)F)S(C)(=O)=O)c(OC)cc12` [Example 308, 2-(4-Fluoro-phenyl)-6-[methanesulfonyl-(2,2,2-trifluoro-ethyl)-amino]-5-methoxy-benzofuran-3-carboxylic acid methylamide], the IC50 [1, 6] is reported as ≤ 500 nM and the EC50 [2, 3] is reported as < 1000 nM.

With `CNC(=O)c1c(-c2ccc(F)cc2)oc2cc(N(C)S(C)(=O)=O)c(OCC(N)=O)cc12` [Example 424, 5-Carbamoylmethoxy-2-(4-fluoro-phenyl)-6-(methanesulfonyl-methyl-amino)-benzofuran-3-carboxylic acid methylamide] the IC50 [1, 7] was ≤ 500 nM and the EC50 [2, 8] was < 1000 nM.

`CNC(=O)c1c(-c2ccc(F)cc2)oc2cc(N(Cc3c(C)noc3C)S(C)(=O)=O)c(OC(C)C)cc12` [Example 284, 6-[(3,5-Dimethyl-isoxazol-4-ylmethyl)-methanesulfonyl-amino]-2-(4-fluoro-phenyl)-5-isopropoxy-benzofuran-3-carboxylic acid methylamide] was tested, and the IC50 [1, 6] was ≤ 500 nM and the EC50 [2, 3] was < 10000 nM.

With `CCNC(=O)c1c(-c2ccc(F)cc2)oc2cc(-c3c(C)noc3C)c(OC)cc12` [Example 378, 6-(3,5-Dimethyl-isoxazol-4-yl)-2-(4-fluoro-phenyl)-5-methoxy-benzofuran-3-carboxylic acid ethylamide] the IC50 [1, 10] was ≤ 500 nM and the EC50 [2, 3] was < 1000 nM.

In the case of `CNC(=O)c1c(-c2ccc(F)cc2)oc2cc(-c3cc(C4CC4)no3)c(OC(C)C)cc12` [Example 241, 6-(3-Cyclopropyl-isoxazol-5-yl)-2-(4-fluoro-phenyl)-5-isopropoxy-benzofuran-3-carboxylic acid methylamide], the IC50 [1, 9] is reported as 500 to 5000 nM and the EC50 ([2]; HCV replicon, range of EC50) is reported as < 10000 nM.

`CNC(=O)c1c(-c2ccc(F)cc2)oc2cc(Nc3c(C)noc3C)c(OC(C)C)cc12` [Example 235, 6-(3,5-Dimethyl-isoxazol-4-ylamino)-2-(4-fluoro-phenyl)-5-isopropoxy-benzofuran-3-carboxylic acid methylamide] was tested, and the IC50 [1, 9] was 5000 to 30000 nM and the EC50 ([2]; HCV replicon, range of EC50) was > 30000 nM.

With `CNC(=O)c1c(-c2ccc(F)cc2)oc2cc(C(C)(C)NS(C)(=O)=O)c(OC)cc12` [Example 390, 2-(4-Fluoro-phenyl)-6-(1-methanesulfonylamino-1-methyl-ethyl)-5-methoxy-benzofuran-3-carboxylic acid methylamide] the IC50 [1, 7] was ≤ 500 nM and the EC50 [2, 8] was < 10000 nM.

For `CNC(=O)c1c(-c2ccc(N)cc2)oc2ccc(OC(C)C)cc12` [Example 99, 2-(4-Amino-phenyl)-5-isopropoxy-benzofuran-3-carboxylic acid methylamide], the IC50 ([1]; HCV NS5B RdRp, BB7 genotype 1b) was 500 to 5000 nM and the EC50 [2, 11] was < 30000 nM.

`CNC(=O)c1c(-c2ccc(F)cc2)oc2cc(-c3c(C)noc3C)c(OCCN3CCC(C#N)CC3)cc12` [Example 419, 5-[2-(4-Cyano-piperidin-1-yl)-ethoxy]-6-(3,5-dimethyl-isoxazol-4-yl)-2-(4-fluoro-phenyl)-benzofuran-3-carboxylic acid methylamide] was tested, and the IC50 [1, 7] was ≤ 500 nM and the EC50 [2, 8] was < 1000 nM.

In the case of `CNC(=O)c1c(-c2ccc(F)cc2)oc2cc(N(C)S(C)(=O)=O)c(OCC(C)O)cc12` (stereo not drawn) [Example 370, 2-(4-Fluoro-phenyl)-5-(2-hydroxy-propoxy)-6-(methanesulfonyl-methyl-amino)-benzofuran-3-carboxylic acid methylamide], the IC50 [1, 10] is reported as ≤ 500 nM and the EC50 [2, 3] is reported as < 1000 nM.

For `CCOc1ccc2oc(-c3ccccc3)c(C(=O)NC)c2c1` [Example 57, 5-Ethoxy-2-phenyl-benzofuran-3-carboxylic acid methylamide], the IC50 [1, 4] was 500 to 5000 nM and the EC50 [2, 5] was > 30000 nM.

`CCN(C)c1cc2oc(-c3ccc(F)cc3)c(C(=O)NC)c2c(Cl)c1OC` [Example 362, 4-Chloro-6-(ethyl-methyl-amino)-2-(4-fluoro-phenyl)-5-methoxy-benzofuran-3-carboxylic acid methylamide] was tested, and the IC50 [1, 10] was ≤ 500 nM and the EC50 [2, 3] was < 10000 nM.

With `CNC(=O)c1c(-c2ccc(F)cc2)oc2cc(N(C)S(C)(=O)=O)c(OCCn3nc(C)cc3C)cc12` [Example 425, 5-[2-(3,5-Dimethyl-pyrazol-1-yl)-ethoxy]-2-(4-fluoro-phenyl)-6-(methanesulfonyl-methyl-amino)-benzofuran-3-carboxylic acid methylamide] the IC50 [1, 7] was ≤ 500 nM and the EC50 [2, 8] was < 1000 nM.

With `CNC(=O)c1c(-c2ccc(F)cc2)oc2cc(C3CCCN3C(C)=O)c(OC)cc12` (stereo not drawn) [Example 47, 6-(1-Acetyl-pyrrolidin-2-yl)-2-(4-fluoro-phenyl)-5-methoxy-benzofuran-3-carboxylic acid methylamide] the IC50 [1, 4] was ≤ 500 nM and the EC50 [2, 5] was < 1000 nM.
